Measured values taken from patent publication US20190030036A1, “PHOSPHODIESTERASE INHIBITOR TREATMENT” (Cyrano Therapeutics, Inc., priority 2013, published 2019).

Experiments:
Assay type in all cases: in vivo, human
[1] = tested on: patients with hyposmia and hypogeusia; test: Adverse effects of intranasal theophylline (Example 8); details: intranasal theophylline 20 μg/d in each naris, 4 weeks
Procedure: Under each condition, we performed subjective evaluations of taste and smell functions, quantitative measurements of taste (gustometry) and smell (olfactometry), and measurements of serum theophylline level and body weight.
The intranasal administration device was a calibrated 1 mL syringe fitted with a nozzle that fit comfortably into the anterior naris (Wolfe Tory Medical, Inc) and loaded under sterile conditions with 20 μg of theophylline methylpropyl paraben in a 0.4-mL saline solution (Foundation Care). Patients were instructed to direct the spray superiorly into the nasal cavity but not posteriorly into the nasopharynx. This technique was practiced before study initiation with sterile saline.

hyposmic patients = test: Smell acuity in open label trial of inhalable/nasal PDE inhibitor (Examples 3, 4); details: nasal theophylline, not more than 500 μg, 1 month
Procedure: Hyposmic patients for whom the etiology of smell loss is not associated with head injury or allergic rhinitis are enrolled in an open label trial of inhalable theophylline. Patients are started at an initial dose of not more than 500 μg formulated as a liquid spray or dry powder to be delivered as a metered dose. Initially only local patients are enrolled so that quicker dose titration is achieved. Groups of 5 patients are started on not more than 500 μg of theophylline and continued for 1 month.
Patients are tested for improvement in smell acuity using the standard forced choice technique using four odors as described in Example 1. Additionally, subjective measurements of smell function are obtained using a scale from 0-100 as described in Example 1. Blood samples are also drawn to ascertain blood theophylline level to gauge its relationship to the expected recovery of smell.
Hyposmic patients for whom the etiology of smell loss is not associated with head injury or allergic rhinitis are enrolled in an open label trial of an inhalable PDE1 inhibitor. […]

patients with hyposmia [2] = test: Side effects of intranasal theophylline (Example 7); details: intranasal theophylline 20 μg per naris once a day
Description: Ten hyposmia patients were enrolled in the study; eight patients have completed all four phases of the study with the remaining two patients still in process.

[3] = tested on: patients with hyposmia and hypogeusia; test: Olfactometry (DT, RT, ME, HR for 4 odors) (Example 8); details: intranasal theophylline vs before treatment or after oral theophylline
Description: Measurements included determination of detection thresholds (DTs), recognition thresholds (RTs), magnitude estimation (ME), and hedonic response (HR) for 4 odors (e.g., pyridine [dead fish], nitrobenzene [bitter almond], thiophene [petroleum], and amyl acetate [banana oil]) (olfactometry) and for 4 tastants (e.g., sodium chloride [salt], sucrose [sweet], […] [sour], and urea [bitter]) (gustometry).

patients with hyposmia [4] = test: Subjective overall change in smell function; open trial of oral theophylline
Procedure: Independently, patients were also required to grade their ability to smell daily on a scale from 0-100, with 0 reflecting no overall smell function over a 24 hour period, 100 reflecting normal overall smell function over this period and numbers from 0-100 reflecting their estimation of their overall ability to smell odors over this period.
After determination of hyposmia, patients were treated in an open label, fixed design, controlled open trial. Patients were given an oral extended release theophylline in divided daily doses taken in the middle of breakfast and lunch. All patients were initially given 200 mg of theophylline; changes in this dose were made based upon subjective responses to therapy. If at a subsequent return visit, patients reported ≥5% subjective improvement in overall smell function, they continued on this same dose of theophylline and were reevaluated after four to six months of continued treatment. Results from any subsequent return from these improved patients were not included in any subsequent data report. All subsequent comparisons between treated and untreated patients were made only between those patients continuing in the study compared to their own measurements obtained in the untreated state. If patients reported <5% subjective improvement, their theophylline dose was increased by 200 mg daily and they were scheduled for retesting at the study site after two to four months at this new dosage. For patients that reported <5% improvement, this sequence continued until patients reached 800 mg of theophylline, at which time the study was considered completed.
Patients returned for reevaluation after two to four months of treatment. Measurements of blood serum theophylline were measured by a fluorescence polarization assay (Abbott, Chicago, Ill.). At this time, subjective changes in smell function were measured independently (compared to patient's memory of previous normal smell function monitored by use of the patients' daily measurements) using the scale from −100−0-+100 previously described. After independently recording their subjective responses, smell function was measured for all four odors with DT, RT, ME and H determined without recourse to prior measurements.
Subjective overall changes in smell acuity were reported by telephone and by FAX or email at two—four month intervals after treatment was initiated using the standardized form in which they measured daily changes in smell acuity using the −100−0-+100 scale as noted above. Using the same criteria noted above, if at their initial two—four month call-in they reported improvement in smell acuity of ≥5%, they continued at 200 mg and returned to the study site at four—six months on this treatment dose. If they reported improvement in smell acuity of <5% their dose of theophylline was increased to 400 mg for an additional two—four months and they then called the study site at the end of this period.

Body weight (Example 8) = test: Body weight (Example 8)

Q: What does the source list for `Cn1c(=O)c2[nH]cnc2n(C)c1=O` [theophylline]?
A: adverse effects [1]: No adverse effects; recovery of smell acuity compared with oral administration (hyposmic patients): at least an equivalent recovery of smell acuity; side effects of intranasal use (patients with hyposmia [2]): No side effects; DTs and RTs for each odor [3]: lower (more sensitive); Magnitude estimations for each odor [3]: higher (more intense); patients improved ≥5% (subjective smell function) (patients with hyposmia [4]; oral theophylline 200 mg daily, two-six months, 199 returning patients): 17.1%; improved patients who considered their smell function had returned to normal (patients with hyposmia [4]; oral theophylline 200 mg daily, of 34 improved patients): 26.5%; non-returning patients reporting >5% improvement (patients with hyposmia [4]; oral theophylline 200 mg, 15 non-returning patients): 46.7%; improved non-returning patients reporting a return to normal (patients with hyposmia [4]; oral theophylline 200 mg, non-returning patients): 14.3%; patients improved ≥5% (subjective smell function) (patients with hyposmia [4]; oral theophylline 400 mg daily, two-six months, 120 patients): 29.2%; improved patients who considered their smell function had returned to normal (patients with hyposmia [4]; oral theophylline 400 mg daily, of 35 improved patients): 8.6%; patients improved ≥5% (subjective smell function) (patients with hyposmia [4]; oral theophylline 600 mg daily, two-12 months, 160 patients): 41.2%; patients who considered their smell function had returned to normal (patients with hyposmia [4]; oral theophylline 600 mg daily, 17 patients): 10.6%; patients improved ≥5% (subjective smell function) (patients with hyposmia [4]; oral theophylline 800 mg daily, two-12 months, 28 patients): 53.6%; patients who considered their smell function had returned to normal (patients with hyposmia [4]; oral theophylline 800 mg daily, three patients): 33%; improved patients reporting smell function returned to normal (patients with hyposmia [4]; oral theophylline 200-600 mg, Type III hyposmia): 60%; patients reporting >5% improvement (patients with hyposmia [4]; oral theophylline 200-600 mg, eight patients with Type III hyposmia): 62.5%; patients reporting >5% improvement (patients with hyposmia [4]; oral theophylline 200-800 mg, 96 patients with Type I hyposmia): 33.3%; patients reporting >5% improvement (patients with hyposmia [4]; oral theophylline 200-800 mg, 208 patients with Type II hyposmia): 62%; improved patients reporting smell function returned to normal (patients with hyposmia [4]; oral theophylline 200-800 mg, Type I hyposmia): 15.6%; improved patients reporting smell function returned to normal (patients with hyposmia [4]; oral theophylline 200-800 mg, Type II hyposmia): 20.2%; responsive patients who considered smell function returned to normal levels (patients with hyposmia [4]; oral theophylline, 34 of 157): 21.7%; patients subjectively responsive to treatment (patients with hyposmia [4]; oral theophylline, 157 of the 312 patients): 50.3%; all patients in the study who considered smell function returned to normal (patients with hyposmia [4]; oral theophylline, all 312 patients): 10.9%; mean (SEM) weight increase from pretreatment values (Body weight (Example 8); intranasal theophylline 20 μg/d in each naris): 2.5 (0.5) kg; mean (SEM) weight increase from pretreatment values (Body weight (Example 8); oral theophylline 200 to 800 mg/d): 1.5 (0.4) kg
